The values that follow come from ChEMBL document CHEMBL4411298, “Small molecule-drug conjugates: A novel strategy for cancer-targeted treatment” (Eur J Med Chem, 2019).

pIC50: −log10 of the molar value.

The nature of series [1]: Half life in pH 7.4 buffer at 37 degC in presence of 8 mM DTT. It is filed as physicochemical. To be noted: pH 7.4 buffer with 8 mM DTT.
The species entered for series [2] is Homo sapiens. Put plainly: Binding affinity to folate receptor in human KB cells after 1 hr in presence of [3H]-FA by scintillation counting assay relative to control. It is filed as cell-based.
The species named for series [3] is Homo sapiens. Put plainly: Antitumor activity against NSCLC patients assessed as progression-free survival in presence of docetaxel in phase 2b clinical trial. Format: functional.
A short description of series [4]: Drug metabolism assessed as half life for cleavage of disulfide bond at 1 mM pH 7.4 PBS in presence of DTT at 37 degC.
The species named for series [5] is Homo sapiens. Put plainly: Antitumor activity against NSCLC patients assessed as overall survival in presence of docetaxel in phase 2b clinical trial. It is filed as functional.
Series [6] can be described thus: Drug metabolism assessed as half life for cleavage of disulfide bond at 1 mM pH 7.4 PBS in presence of 20 mM GSH at 37 degC.
Series [7] in a line: Drug metabolism assessed as half life for N-hydroxyethylvindesine release at pH 7.4.
A short description of series [8]: Drug metabolism assessed as half life for N-hydroxyethylvindesine release at pH 5.
Series [9] deals with KB. Put plainly: Antitumor activity against human KB cells xenografted in mouse assessed as complete tumor reversion incidence at 0.5 umol/kg. It is filed as functional.
Series [10] deals with KB. As to the kind of experiment: Growth inhibition of human KB cells. It is filed as functional, cell-based.
The nature of series [11]: Prodrug conversion assessed as half life for parent compound release at pH 5. It is filed as ADME.
The next series deals with LNCaP. As to the kind of experiment: Growth inhibition of PSMA-positive human LNCAP cells. It is filed as functional, cell-based.
A short description of series [12]: Half life in pH 7.4 buffer at 37 degC in presence of GSH. It is filed as physicochemical. To be noted: pH 7.4 buffer with GSH.

Broadly, the half-life is the time in which the quantity being followed falls by half. As for `CC[C@]1(O)C[C@H]2CN(CCc3c([nH]c4ccccc34)[C@@](C(=O)OC)(c3cc4c(cc3OC)N(C)[C@H]3[C@@](O)(C(=O)NNC(=O)OC(C)C(C)SSC[C@H](NC(=O)[C@H](CC(=O)O)NC(=O)[C@H](CC(=O)O)NC(=O)[C@H](CCCNC(=N)N)NC(=O)[C@H](CC(=O)O)NC(=O)CC[C@H](NC(=O)c5ccc(NCc6cnc7nc(N)[nH]c(=O)c7n6)cc5)C(=O)O)C(=O)O)[C@H](O)[C@]5(CC)C=CCN6CC[C@]43[C@@H]65)C2)C1` (some centres undefined), the half-life in series [1] is 30 min.

As for `CC[C@]1(O)C[C@H]2CN(CCc3c([nH]c4ccccc34)[C@@](C(=O)OC)(c3cc4c(cc3OC)N(C)[C@H]3[C@@](O)(C(=O)NNC(=O)OCCSSC[C@H](NC(=O)[C@H](CC(=O)O)NC(=O)[C@H](CC(=O)O)NC(=O)[C@H](CCCNC(=N)N)NC(=O)[C@H](CC(=O)O)NC(=O)CC[C@H](NC(=O)c5ccc(NCc6cnc7nc(N)[nH]c(=O)c7n6)cc5)C(=O)O)C(=O)O)[C@H](O)[C@]5(CC)C=CCN6CC[C@]43[C@@H]65)C2)C1`, the relative binding affinity (RBA) in the series listed under Homo sapiens [2] was found to be 0.47. Moreover, the Survival in the series listed under Homo sapiens [3] stood at 7.1 months; in the series listed under Homo sapiens [5] it was 10.9 months. Also, the T1/2 in series [4] came out at 5 min; in [6], 60 min.

For the compound `CC[C@]1(O)C[C@H]2CN(CCc3c([nH]c4ccccc34)[C@@](C(=O)OC)(c3cc4c(cc3OC)N(C)[C@H]3[C@@](O)(C(=O)NCCOC(OC)c5ccc(OCCN6C(=O)CC(SC[C@H](NC(=O)[C@H](CC(=O)O)NC(=O)[C@H](CC(=O)O)NC(=O)[C@H](CCCNC(=N)N)NC(=O)[C@H](CC(=O)O)NC(=O)CC[C@H](NC(=O)c7ccc(NCc8cnc9nc(N)[nH]c(=O)c9n8)cc7)C(=O)O)C(=O)O)C6=O)cc5)[C@H](O)[C@]5(CC)C=CCN6CC[C@]43[C@@H]65)C2)C1` (some centres undefined), the T1/2 in [7] was 1320 min; in series [8], 25 min.

What is called pIC50 is −log10 of the IC50, conventionally taken in molar units. As for `CCCC(=O)OCN(C(=O)[C@@H](NC(=O)[C@H]1CCCCN1C)[C@@H](C)CC)[C@H](C[C@@H](OC(C)=O)c1nc(C(=O)N[C@@H](Cc2ccc(O)cc2)C[C@H](C)C(=O)NNC(=O)OCCSSC[C@H](NC(=O)[C@H](CC(=O)O)NC(=O)[C@H](CC(=O)O)NC(=O)[C@H](CCCNC(=N)N)NC(=O)[C@H](CC(=O)O)NC(=O)CC[C@H](NC(=O)c2ccc(NCc3cnc4nc(N)[nH]c(=O)c4n3)cc2)C(=O)O)C(=O)O)cs1)C(C)C`, the Activity with KB [9] is on record as 80%. In addition, in the series on KB [10], the pIC50 was 8.15.

With `CC[C@]1(O)C[C@H]2CN(CCc3c([nH]c4ccccc34)[C@@](C(=O)OC)(c3cc4c(cc3OC)N(C)[C@H]3[C@@](O)(C(=O)N/N=C(\C)c5ccc(N6C(=O)CC(SC[C@H](NC(=O)[C@H](CC(=O)O)NC(=O)[C@H](CC(=O)O)NC(=O)[C@H](CCCNC(=N)N)NC(=O)[C@H](CC(=O)O)NC(=O)CC[C@H](NC(=O)c7ccc(NCc8cnc9nc(N)[nH]c(=O)c9n8)cc7)C(=O)O)C(=O)O)C6=O)cc5)[C@H](O)[C@]5(CC)C=CCN6CC[C@]43[C@@H]65)C2)C1` (some centres undefined), the t1/2 in series [11] stood at 330 min.

For the compound `CC[C@H](C)[C@H](NC(=O)[C@H]1CCCCN1C)C(=O)N(COC(=O)CC(C)C)[C@H](C[C@@H](OC(C)=O)c1nc(C(=O)N[C@@H](Cc2ccc(O)cc2)C[C@H](C)C(=O)NNC(=O)OCCSSC[C@H](NC(=O)[C@H](CC(=O)O)NC(=O)[C@H](CC(=O)O)NC(=O)[C@H](CCCNC(=N)N)NC(=O)[C@H](CC(=O)O)NC(=O)CC[C@H](NC(=O)c2ccc(NCc3cnc4nc(N)[nH]c(=O)c4n3)cc2)C(=O)O)C(=O)O)cs1)C(C)C`, in the series with KB [9], the Activity is reported as 80%.

Take `CC[C@]1(O)C[C@H]2CN(CCc3c([nH]c4ccccc34)[C@@](C(=O)OC)(c3cc4c(cc3OC)N(C)[C@H]3[C@@](O)(C(=O)NNC(=O)OCCSSC(C)(C)[C@H](NC(=O)[C@H](CC(=O)O)NC(=O)[C@H](CC(=O)O)NC(=O)[C@H](CCCNC(=N)N)NC(=O)[C@H](CC(=O)O)NC(=O)CC[C@H](NC(=O)c5ccc(NCc6cnc7nc(N)[nH]c(=O)c7n6)cc5)C(=O)O)C(=O)O)[C@H](O)[C@]5(CC)C=CCN6CC[C@]43[C@@H]65)C2)C1`: the half-life in series [1] is 60 min.

In the series on LNCaP, `CCCC(=O)OCN(C(=O)[C@@H](NC(=O)[C@H]1CCCCN1C)[C@@H](C)CC)[C@H](C[C@@H](OC(C)=O)c1nc(C(=O)N[C@@H](Cc2ccc(O)cc2)C[C@H](C)C(=O)NNC(=O)OCCSSC[C@H](NC(=O)[C@H](Cc2ccccc2)NC(=O)[C@H](CC(=O)O)NC(=O)CC[C@H](NC(=O)CC[C@@H](NC(=O)N[C@@H](CCC(=O)O)C(=O)O)C(=O)O)C(=O)O)C(=O)O)cs1)C(C)C` gave a pIC50 of 8.52.

In the case of `Nc1nc(=O)c2nc(CNc3ccc(C(=O)N[C@@H](CCC(=O)O)C(=O)O)cc3)cnc2[nH]1`, the relative binding affinity (RBA) in the series listed under Homo sapiens [2] is 1.

`CC[C@]1(O)C[C@H]2CN(CCc3c([nH]c4ccccc34)[C@@](C(=O)OC)(c3cc4c(cc3OC)N(C)[C@H]3[C@@](O)(C(=O)NNC(=O)OCc5ccc(SSC[C@H](NC(=O)[C@H](CC(=O)O)NC(=O)[C@H](CC(=O)O)NC(=O)[C@H](CCCNC(=N)N)NC(=O)[C@H](CC(=O)O)NC(=O)CC[C@H](NC(=O)c6ccc(NCc7cnc8nc(N)[nH]c(=O)c8n7)cc6)C(=O)O)C(=O)O)cc5)[C@H](O)[C@]5(CC)C=CCN6CC[C@]43[C@@H]65)C2)C1`: the half-life in series [12] is 45 min; in series [1] it was below 5 min.

Consider `CC[C@]1(O)C[C@H]2CN(CCc3c([nH]c4ccccc34)[C@@](C(=O)OC)(c3cc4c(cc3OC)N(C)[C@H]3[C@@](O)(C(=O)NNC(=O)OCCSSC[C@H](NC(=O)c5ccc(NCc6cnc7nc(N)[nH]c(=O)c7n6)cc5)C(=O)O)[C@H](O)[C@]5(CC)C=CCN6CC[C@]43[C@@H]65)C2)C1`, for which the relative binding affinity (RBA) in the series listed under Homo sapiens [2] was determined as 0.046.

As to `CC[C@]1(O)C[C@H]2CN(CCc3c([nH]c4ccccc34)[C@@](C(=O)OC)(c3cc4c(cc3OC)N(C)[C@H]3[C@@](O)(C(=O)NNC(=O)OC(C)C(C)SSC(C)(C)[C@H](NC(=O)[C@H](CC(=O)O)NC(=O)[C@H](CC(=O)O)NC(=O)[C@H](CCCNC(=N)N)NC(=O)[C@H](CC(=O)O)NC(=O)CC[C@H](NC(=O)c5ccc(NCc6cnc7nc(N)[nH]c(=O)c7n6)cc5)C(=O)O)C(=O)O)[C@H](O)[C@]5(CC)C=CCN6CC[C@]43[C@@H]65)C2)C1` (some centres undefined), the half-life in [1] was above 480 min.
